Data on one compound can be found in PubChem BioAssay AID1259411 (Chemical Carcinogenesis Research Information System (CCRIS), 2018).

The structures appear in SMILES notation. The source made the active and inactive calls. How the calls were made is not given here.

The data set concerns rodent carcinogenicity bioassays, tumor incidence. Nature of the data set: CCRIS carcinogenicity studies. Conditions: Species: RAT; Strain/Sex: SPRAGUE-DAWLEY/FEMALE; Route: SUBCUTANEOUS; Dose: 0; 0.2 UMOL IN 0.1 ML SESAME OIL:DMSO (9:1) 1/2 D FOR 20 DOSES (STUDY DURATION: 52 WK); Tumor Site: Type of Lesion: INJECTION SITE: SARCOMA. In outline: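 NCI-built, expert-reviewed records of carcinogenicity and related test outcomes (mutagenicity, tumor promotion/inhibition) compiled from published and report sources, historical span 1985-2011, not updated.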

In the case of `O=S(=O)(O)OCc1ccc2ccc3cccc4ccc1c2c34`, the carcinogen call is “active; positive”.
